Values joined by “and” are separate entries in the source; they are usually repeats but may differ in a detail not shown here. Equal entries are not always repeated.
Key:
human 5-HT4(b) receptors [1] = target: T1, human 5-HT4(b) receptors (Homo sapiens, UniProt Q13639); test: Adenylyl cyclase assay in membranes of HEK293 cells stably expressing human 5-HT4(b) receptors; assay type: biochemical; conditions: for Kb: each line one individual measurement, read-out: Antagonist pKb value (individual measurements) (converted)
T1 construct: expressed in transfected cells; membranes prepared
Description: (§1) Establishment of HEK293 Cell Lines Stably Expressing Human 5-HT4(b) Receptors
(§2) The development of HEK293 cell lines stably expressing human 5-HT4(b) receptors was described and published previously (Bach et al. 2001). Briefly, HEK293 cells (ATCC) were grown in Dulbecco's modified Eagle's medium with 10% fetal calf serum and penicillin (100 U/ml) and streptomycin (100 μg/ml). Cells were transfected with plasmid DNA (pcDNA3.1(−) containing human 5-HT4(b) receptor cDNA) using SuperFect Transfection Reagent (QIAGEN) according to the manufacturers protocol. Serial dilutions of transfected cells were plated in 96 well plates containing G418 (geneticin; Amersham) at 0.4 mg/ml, and isolated single colonies of cells transformed to the neomycin-resistant phenotype were expanded and tested for expression of serotonin receptors by measuring serotonin-stimulated adenylyl cyclase activity (Themmen et al. 1993). Transformed cells were always grown in the presence of G418 (0.4 mg/ml). For binding and adenylyl cyclase analysis, stable cell lines were grown and maintained in UltraCULTURE™ general purpose serum-free medium (BioWhittaker, Walkersville, Md., USA), supplemented with L-glutamine (2 mM), penicillin (100 U/ml) and streptomycin (100 μg/ml).
Membrane Preparation for Radioligand Binding and Adenylyl Cyclase Assay
Membranes were prepared from stably transfected HEK293 cells cultured on 150-mm cell culture dishes and grown to 80% confluence in serum-free medium (UltraCULTURE™, BioWhittaker) with penicillin (10 U/ml) and 2 mM L-Glutamine (BioWhittaker). Cells were washed twice with 10 ml ice-cold HBSS, scraped with a rubber policeman in 10 ml ice-cold HBSS and collected by centrifugation at 800 g for 5 min at 4° C. The cell pellet was resuspended in 1 ml/dish ice-cold STE buffer (27% (w/v) sucrose, 50 mM Tris-HCl, pH 7.5 at 20° C., 5 mM EDTA) and homogenized with an Ultra-Turrax (IKA) homogenizer, using five 10 s bursts with 30 s cooling in ice-water between bursts. To remove nuclei, the homogenate was centrifuged at 300 g for 5 min at 4° C. and the supernatant was further centrifuged at 17000 g for 20 min at 4° C. and the supernatant removed. The crude membrane pellet was resuspended with ten strokes of tight fitting pestle B in a Dounce glass-glass homogenizer in 1 ml/dish ice-cold TE (50 mM Tris-HCl, pH 7.5 at RT, 5 mM EDTA). This procedure was repeated twice and the resuspended membranes were finally aliquoted and flash frozen in liquid nitrogen and stored at −70° C. until use.
Adenylyl cyclase activity was measured by determining conversion of [α-^32P]ATP to [^32P]cAMP in membranes prepared in STE by homogenization of cells grown and washed as described above in a Dounce glass-glass homogenizer by 10 strokes with the tight-fitting pestle. Membranes were kept on ice prior to assay. Adenylyl cyclase activities were measured on 10-μl aliquots in a final volume of 50 μl in the presence of 0.1 mM [α-^32P]ATP (1-2×10^6 cpm/assay), 4 mM MgCl2, 20 μM GTP, 1 mM EDTA, 1 mM [^3H]cAMP (ca. 10,000 cpm/assay), 1 μM 3-isobutyl-1-methyl xanthine (IBMX; Sigma), a nucleoside triphosphate regenerating system consisting of 20 mM creatine phosphate (Sigma), 0.2 mg/ml creatine phosphokinase (Sigma) and 40 U/ml myokinase (Sigma) and additives described in the text and figures. When forskolin (Calbiochem, La Jolla, Calif., USA) was used the concentration was 100 μM. Incubations were for 20 min at 32EC. Cyclic AMP formed was quantified by the double column chromatography system of Salomon et al. (1974) as modified by Bockaert et al. (1976).
Binding and adenylyl cyclase data were analyzed by non-linear regression using Microsoft Excel with the Solver add-in, using the below equations.
Activation of adenylyl cyclase—The data were fit to the equation Y=a+(b−a)x/(c+x) where a is basal adenylyl cyclase activity, b is maximal adenylyl cyclase activity stimulated by the agonist, c is EC50, and x is the concentration of agonist.

human 5-HT4(b) receptors [2] = target: T1, human 5-HT4(b) receptors; test: Radioligand binding assay with [3H]GR113808 on membranes of HEK293 cells stably expressing human 5-HT4(b) receptors; conditions: competition with [3H]GR113808, HEK293 membranes, each line one individual measurement, read-out: Binding affinity (pKd value) (individual measurements) (converted)
Description: as §1, §2
Membrane Preparation for Radioligand Binding and Adenylyl Cyclase Assay […]
Binding assays were performed in 96-well, round-bottom microtiter plates with total reaction volumes of 50-200 μl, containing the indicated concentration of [^3H]GR113808 with or without competing unlabelled ligand in a binding buffer containing 50 mM Tris-HCl (pH 7.5 at RT), 1 mM EDTA, 5 mM EGTA, 2 mM MgCl2, 1 mM ascorbate, 0.1% BSA and 100 μM GTP. […] The filters were dried and counted at approximately […] efficiency in a Top-Count liquid scintillation counter (Packard), using 20 μl per filter well of Micro-Scint liquid scintillation cocktail (Packard).
Binding and adenylyl cyclase data were analyzed by non-linear regression using Microsoft Excel with the Solver add-in, using the below equations. […]

T1 sequence (Q13639 whole entry): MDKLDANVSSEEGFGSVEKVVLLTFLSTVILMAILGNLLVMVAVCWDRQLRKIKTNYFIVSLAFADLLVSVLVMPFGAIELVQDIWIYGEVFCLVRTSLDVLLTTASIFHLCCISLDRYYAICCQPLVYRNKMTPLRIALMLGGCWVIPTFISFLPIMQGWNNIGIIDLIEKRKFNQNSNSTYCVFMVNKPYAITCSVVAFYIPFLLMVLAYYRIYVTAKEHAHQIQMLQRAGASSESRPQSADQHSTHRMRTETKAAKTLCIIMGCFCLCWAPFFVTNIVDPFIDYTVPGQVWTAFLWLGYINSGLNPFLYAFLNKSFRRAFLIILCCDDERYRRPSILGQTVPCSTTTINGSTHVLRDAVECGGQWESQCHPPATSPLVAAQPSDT

Row | SMILES | Agonist/Antagonist properties (human 5-HT4(b) receptors [1]) | Kb (human 5-HT4(b) receptors [1]) | Kd (human 5-HT4(b) receptors [2])
1 | Cn1cc(C(=O)OCC2CCN(CCNS(C)(=O)=O)CC2)c2ccccc21 [GR113808, 1-methyl-1H-indole-3-carboxylic acid, [1-[2-[(methylsulfonyl)amino]ethyl]-4-piperidinyl]methyl ester] | Antagonist | 105 pM and 135 pM and 170 pM and 224 pM and 151 pM and 178 pM | 115 pM and 49 pM and 61.7 pM and 19.5 pM
2 | CCCCN1CCC(COC(=O)c2c[nH]c3ccccc23)CC1 [DDL-6002] | Antagonist | 129 pM | 28.2 pM and 21.9 pM
3 | CCCCN1CCC(CNC(=O)c2c3n(c4ccccc24)CCCO3)CC1 [SB207266] | Antagonist | 132 pM and 170 pM | 17.4 pM
